Calls of active or inactive are those of the source. The calls are words filed in the database; no cut-off is given here.

Series [1] addresses Sigma non-opioid intracellular receptor 1 (Cavia porcellus, UniProt Q60492). In words: Displacement of [3H](+)-pentazocine from sigma 1 receptor in guinea pig brain membranes measured after 120 mins by scintillation counting method. Format: cell membranes, Membrane.
The subject of series [2] is PC-12. In words: Cytotoxicity against rat PC-12 cells assessed as cell death at 0.25 uM after 72 hrs incubation by LDH-based cytotoxic assay. In kind it is toxicity. To be noted: pc-12, 72 h.
For series [3], the system named is PC-12. In words: Neuroprotective activity in rat PC-12 cells assessed as increase in NGF-mediated neurite outgrowth by measuring differentiated cells at 5 to 250 nM incubated for 72 hrs by bright-field microscopic analysis. In kind it is functional, cell-based. The note with it: dose 5-250 nM.
In series [4] the test system is PC-12. In words: Neuroprotective activity in rat PC-12 cells assessed as increase in NGF-mediated neurite outgrowth by measuring differentiated cells at 5 to 250 nM in presence of 1 uM NE-100 incubated for 72 hrs by bright-field microscopic analysis. Format: functional, cell-based. To be noted: dose 5-250 nM.
Series [5] concerns the target Sigma non-opioid intracellular receptor 1 (Cavia porcellus) (UniProt Q60492). Put plainly: Displacement of [3H](+)-pentazocine from sigma 1 receptor in guinea pig brain membranes measured after 120 mins by scintillation counting method relative to control. In kind it is cell membranes. To be noted: Membrane.

Sigma non-opioid intracellular receptor 1, sequence (Q60492 whole entry): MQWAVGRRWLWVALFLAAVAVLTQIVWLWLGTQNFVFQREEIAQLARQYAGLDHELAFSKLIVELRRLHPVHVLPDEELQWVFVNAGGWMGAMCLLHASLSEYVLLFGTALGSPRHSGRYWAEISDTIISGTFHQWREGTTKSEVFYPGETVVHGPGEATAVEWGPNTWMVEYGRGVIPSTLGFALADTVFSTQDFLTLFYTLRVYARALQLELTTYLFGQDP
Sigma non-opioid intracellular receptor 1 (Cavia porcellus), sequence (Q60492 whole entry): as above

In series [1], `C[C@H](CCN1CCC(NC(=O)CCCCCC(=O)NC2CCN(CC[C@@H](C)c3ccc(-c4ccccc4)cc3)CC2)CC1)c1ccc(-c2ccccc2)cc1` returned an inhibitory constant (Ki) of 1300 nM.
For `CC(=O)NC1CCN(CC[C@@H](C)c2ccc(-c3ccccc3)cc2)CC1`, the Ki in series [1] was 11 nM. Further, in the series on PC-12 [2], the Activity entry is listed as “Non-Toxic”. Besides, the outcome in the series on PC-12 [3] was Active. Further, in the series on PC-12 [4], the result was inactive.
`C[C@H](CCN1CCC(NC(=O)COCCOCCOCCOCCNC(=O)c2ccccc2)CC1)c1ccc(-c2ccccc2)cc1` came in with a Ki in series [1] of 1600 nM.
Take `C[C@H](CCN1CCC(NC(=O)COCCOCC(=O)NC2CCN(CC[C@@H](C)c3ccc(-c4ccccc4)cc3)CC2)CC1)c1ccc(-c2ccccc2)cc1`: the Ki in series [1] was found to be 2.6 nM. The Activity result in the series on PC-12 [2] is given as “Non-Toxic”. Also, in the series with PC-12 [3], the result was Active. In the series on PC-12 [4], the result was inactive.
Consider `C[C@H](CCN1CCCCC1)c1ccc(-c2ccccc2)cc1`, for which the Activity result with PC-12 [2] is on record as “Non-Toxic”. Besides, in the series on PC-12 [3], the outcome was Active. The result in the series with PC-12 [4] was inactive.
`C[C@H](CCN1CCC(NC(=O)CC(=O)NC2CCN(CC[C@@H](C)c3ccc(-c4ccccc4)cc3)CC2)CC1)c1ccc(-c2ccccc2)cc1`: the Ki in series [1] is 200 nM. The Activity result in the series on PC-12 [2] is listed as “Non-Toxic”. The result with PC-12 [3] was Active. Further, the result in the series on PC-12 [4] was inactive.
As to `C[C@H](CCN1CCC(NC(=O)CCCC(=O)NC2CCN(CC[C@@H](C)c3ccc(-c4ccccc4)cc3)CC2)CC1)c1ccc(-c2ccccc2)cc1`, in series [1], the Ki worked out at 622 nM.
Take `C[C@H](CCN1CCC(NC(=O)COCC(=O)NC2CCN(CC[C@@H](C)c3ccc(-c4ccccc4)cc3)CC2)CC1)c1ccc(-c2ccccc2)cc1`: in series [5], the inhibition came to 0%.
Turning to `C[C@H](CCN1CCC(NC(=O)CCOCCOCCOCCOCCOCCOCCOCCOCCOCCC(=O)NC2CCN(CC[C@@H](C)c3ccc(-c4ccccc4)cc3)CC2)CC1)c1ccc(-c2ccccc2)cc1`, the affinity in series [1] corresponds to a Ki of 799 nM.
As for `C[C@H](CCN1CCC(NC(=O)c2ccccc2C(=O)NC2CCN(CC[C@@H](C)c3ccc(-c4ccccc4)cc3)CC2)CC1)c1ccc(-c2ccccc2)cc1`, the inhibitory constant (Ki) in series [1] worked out at 134 nM.

The record behind these values is ChEMBL document CHEMBL5230153, “Bitopic Sigma 1 Receptor Modulators to Shed Light on Molecular Mechanisms Underpinning Ligand Binding and Receptor Oligomerization” (J Med Chem, 2021).
